Values quoted from earlier work in patent US20030195350A1, “Individualization of therapy with antiviral agents” (priority 2001, published 2003).
Where two headings read alike, the source gives them in different places.

Assays:
[1] = cited from earlier work; for AUC (mean±SD): single 600 mg dose, non-fasting
[2] = in vivo; cited from earlier work
[3] = in vivo; cited from earlier work; remark: listed apart in the source
HIV isolates = conditions: one ZDV-resistant HIV isolate in vitro; cited from earlier work
HIV = conditions: cited from earlier work
HIV-1 = conditions: cited from earlier work

## CC(C)c1nc(CN(C)C(=O)N[C@H](C(=O)N[C@@H](Cc2ccccc2)C[C@H](O)[C@H](Cc2ccccc2)NC(=O)OCc2cncs2)C(C)C)cs1 (relative stereo) [ritonavir, 10-Hydroxy-2-methyl-5-(1-methylethyl)-1-[2-(1-methylethyl)-4-thiazolyl]-3,6-dioxo-8,11-bis(phenylmethyl)-2,4,7,12-tetraazatridecan-13-oic acid, 5-thiazolylmethyl ester, [5S-(5R*,8R*,10R*,11R*)]]
[1]; HIV-infected individuals ages 2 to 14 years
  steady-state oral clearance (CL/F/m^2), pediatric vs adult: approximately 1.5 times
[1]; in vivo, po
  dose excreted in the feces: 86.4±2.9 % of the dose
  dose excreted in the feces as unchanged parent drug: 33.8±10.8 % of the dose
  dose excreted into the urine: 11.3±2.8 % of the dose
  dose excreted into the urine as unchanged parent drug: 3.5±1.8 % of the dose
  effect of dilution of oral solution on extent and rate of absorption: did not significantly affect
[1]; in vivo
  renal clearance: negligible
[1]; oral solution (n=18)
  AUC (mean±SD): 129.0 ± 39.3 µg·h/mL
[1]; soft gelatin capsule (n=57)
  AUC (mean±SD): 121.7 ± 53.8 µg·h/mL
[2]
  Adverse event: Depression: 1.7%
  Adverse event: Fecal Incontinence: 0.0%
  Adverse event: Vasodilation: 1.7%
[3]
  Adverse event: Depression: 1.7%
  Adverse event: Diarrhea: 15.4%
  Adverse event: Fecal Incontinence: 0.0%
  Adverse event: Vasodilation: 1.7%
HIV isolates
  susceptibility of ZDV-resistant HIV isolate: retained full susceptibility
HIV; double-blind phase of Study 247, 600 mg b.i.d.
  cumulative incidence of clinical disease progression or death: 26%
HIV; through end of open-label follow-up phase, Study 247
  cumulative mortality: 18%
HIV-1; MT 4 cells, with either zidovudine (ZDV) or didanosine (ddI)
  effect against HIV-1 in combination: additive effects
HIV-1; read-out: average EC50, low passage clinical isolates (n=13)
  EC50: 22 nM
